Data from ChEMBL document CHEMBL1158201, “Barbamide, a chlorinated metabolite with molluscicidal activity from the Caribbean cyanobacterium Lyngbya majuscula” (J Nat Prod, 1996).
≈ marks a conversion by molar mass, not a printed value.

Key:
Assay type in all cases: organism-based
Settings in all cases: in vivo
[1] = Ichthyotoxicity in Carassius auratus
Biomphalaria glabrata = assay: Molluscicidal activity against Biomphalaria glabrata after 24 hrs
[2] = Toxicity in Artemia salina

Structure (SMILES) | LC50 [1] [µg/mL] | other results
C=C1CC(=O)N[C@@H](C)C(=O)N(C)[C@@H](C(C)C)C(=O)NCC(=O)O[C@@H](/C(C)=C/C(C)=C/C(C)(C)C)[C@@H]1C [ANTILLATOXIN] | 0.05 (≈ 0.0993 µM) | 
CO/C(=C/C(=O)N(C)C(Cc1ccccc1)c1nccs1)CC(C)C(Cl)(Cl)Cl (centres undefined) [BARBAMIDE] |  | LC100 (Biomphalaria glabrata): 100 µg/mL
C=CC[C@@H](CC/C(C)=C/C=C/CC/C=C\[C@@H]1CSC([C@@H]2C[C@@H]2C)=N1)OC [CURACIN A] |  | LC50 [2]: 0.0025 µg/mL (≈ 0.00669 µM)
C=C(CCNC(=O)CC/C=C/C[C@H](CCCCCCC)OC)[C@@]12O[C@@H]1CC=C(C)C2=O [MALYNGAMIDE H] | 5 (≈ 11.6 µM) | 
